Key:
Type in all cases: in vivo
[1] = test system: Beet Armyworm (Spodoptera exigua, LAPHEG); experiment: Bioassays on Beet Armyworm (BAW), 128-well diet tray assay; settings: Spodoptera exigua; Beet Armyworm; rating class; read-out: BAW
In short: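 Eight diet wells per compound were treated at 50 μg/cm^2 (acetone-water 90:10), dried, then infested with 1–5 second-instar larvae each. After five to seven days at 25 °C under 14:10 photoperiod, mortality was scored and averaged across wells.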

[2] = test system: Cabbage Looper (Trichoplusia ni, TRIPNI); experiment: Bioassays on Cabbage Looper (CL), 128-well diet tray assay; settings: Trichoplusia ni; Cabbage Looper; rating class; read-out: CL
In short: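 Percent mortality, averaged across eight replicate wells, after second-instar larvae (1–5 per well) fed for five to seven days on diet dosed at 50 μg/cm^2. Compound was applied in acetone-water 90:10 and dried; trays kept vented at 25° C under 14:10 photoperiod.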

[3] = test system: Yellow Fever Mosquito (Aedes aegypti, AEDSAE); settings: Yellow Fever Mosquito; rating class
In short: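 Compounds from 4000 ppm DMSO stocks were diluted in 90:10 water/acetone and dispensed into wells, then infested with about 1-day-old larvae in liver-powder water. Covered plates were held at room temperature for 3 days and each well was scored for mortality against a rating scale; six replicate plates per compound.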

| Compound | pest or weed control at 50 µg/cm2 [1] [%] | pest or weed control at 50 µg/cm2 [2] [%] | YFM [3] |
| --- | --- | --- | --- |
| O=C(Nc1ccc(F)c(NC(=O)C2CCOC2)c1F)c1cc(NC(=O)[C@H]2[C@H](c3ccc(F)c(C(F)(F)F)c3)C2(Cl)Cl)ccc1Cl (stereo partly drawn) [F1480, N-(3-(2-Chloro-5-((1R,3R)-2,2-dichloro-3-(4-fluoro-3-(trifluoromethyl)phenyl)cyclopropane-1-carboxamido)benzamido)-2,6-difluorophenyl)tetrahydrofuran-3-carboxamide] | 50 to 100 | 50 to 100 | A (80–100) |
| O=C(Nc1ccc(F)c(NC(=O)C2CC(F)(F)C2(F)F)c1F)c1cc(NC(=O)[C@H]2[C@H](c3ccc(F)c(C(F)(F)F)c3)C2(Cl)Cl)ccc1Cl (stereo partly drawn) [F1481, 2-Chloro-5-((1R,3R)-2,2-dichloro-3-(4-fluoro-3-(trifluoromethyl)phenyl)cyclopropane-1-carboxamido)-N-(2,4-difluoro-3-(2,2,3,3-tetrafluorocyclobutane-1-carboxamido)phenyl)benzamide] | 50 to 100 | 50 to 100 | A (80–100) |
| C=CCN(C(=O)C(F)F)c1c(F)ccc(NC(=O)c2cc(NC(=O)[C@H]3[C@H](c4ccc(F)c(C(F)(F)F)c4)C3(Cl)Cl)ccc2Cl)c1F [F1482, N-(3-(N-Allyl-2,2-difluoroacetamido)-2,4-difluorophenyl)-2-chloro-5-((1R,3R)-2,2-dichloro-3-(4-fluoro-3-(trifluoromethyl)phenyl)cyclopropane-1-carboxamido)benzamide] | 50 to 100 | 50 to 100 | A (80–100) |
| O=C1CCC(C(=O)Nc2c(F)ccc(NC(=O)c3cc(NC(=O)[C@H]4[C@H](c5ccc(F)c(C(F)(F)F)c5)C4(Cl)Cl)ccc3Cl)c2F)C1 (stereo partly drawn) [F1488, 2-Chloro-5-((1R,3R)-2,2-dichloro-3-(4-fluoro-3-(trifluoromethyl)phenyl)cyclopropane-1-carboxamido)-N-(2,4-difluoro-3-(3-oxocyclopentane-1-carboxamido)phenyl)benzamide] | 50 to 100 | 50 to 100 | A (80–100) |
| CC(=O)N(C)c1c(F)ccc(NC(=O)c2cc(NC(=O)[C@H]3[C@H](c4ccc(F)c(C(F)(F)F)c4)C3(Cl)Cl)ccc2Cl)c1F [F1506, 2-Chloro-5-((1R,3R)-2,2-dichloro-3-(4-fluoro-3-(trifluoromethyl)phenyl)cyclopropane-1-carboxamido)-N-(2,4-difluoro-3-(N-methylacetamido)phenyl)benzamide] | 50 to 100 | 50 to 100 | A (80–100) |
| CC1(C)C(=O)CC1C(=O)Nc1c(F)ccc(NC(=O)c2cc(NC(=O)[C@H]3[C@H](c4ccc(F)c(C(F)(F)F)c4)C3(Cl)Cl)ccc2Cl)c1F (stereo partly drawn) [F1507, 2-Chloro-5-((1R,3R)-2,2-dichloro-3-(4-fluoro-3-(trifluoromethyl)phenyl)cyclopropane-1-carboxamido)-N-(3-(2,2-dimethyl-3-oxocyclobutane-1-carboxamido)-2,4-difluorophenyl)benzamide] | 50 to 100 | 50 to 100 | A (80–100) |
| O=C(Nc1cc(NC(=O)C(F)(F)F)c(F)cc1F)c1cc(NC(=O)[C@H]2[C@H](c3ccc(Cl)c(Cl)c3)C2(Cl)Cl)ccc1F [F1510, 5-((1R,3R)-2,2-Dichloro-3-(3,4-dichlorophenyl)cyclopropane-1-carboxamido)-N-(2,4-difluoro-5-(2,2,2-trifluoroacetamido)phenyl)-2-fluorobenzamide] | 50 to 100 | 50 to 100 | A (80–100) |
| CC(=O)Nc1cc(NC(=O)c2cc(NC(=O)[C@H]3[C@H](c4ccc(Cl)c(Cl)c4)C3(Cl)Cl)ccc2F)c(F)cc1F [F1511, N-(5-Acetamido-2,4-difluorophenyl)-5-((1R,3R)-2,2-dichloro-3-(3,4-dichlorophenyl)cyclopropane-1-carboxamido)-2-fluorobenzamide] | 50 to 100 | 50 to 100 | A (80–100) |
| O=C(Nc1ccc(F)c(NC(=O)C2CCCO2)c1F)c1cc(NC(=O)[C@H]2[C@H](c3ccc(F)c(C(F)(F)F)c3)C2(Cl)Cl)ccc1Cl (stereo partly drawn) [F1521, N-(3-(2-Chloro-5-((1R,3R)-2,2-dichloro-3-(4-fluoro-3-(trifluoromethyl)phenyl)cyclopropane-1-carboxamido)benzamido)-2,6-difluorophenyl)tetrahydrofuran-2-carboxamide] | 50 to 100 | 50 to 100 | A (80–100) |
| O=C(Nc1ccc(F)c(NC(=O)C(F)(F)F)c1F)c1cc(NC(=O)[C@H]2[C@H](c3cc(Cl)c(Cl)c(Cl)c3)C2(Cl)Cl)ccc1F [F1526, 5-((1R,3R)-2,2-Dichloro-3-(3,4,5-trichlorophenyl)cyclopropane-1-carboxamido)-N-(2,4-difluoro-3-(2,2,2-trifluoroacetamido)phenyl)-2-fluorobenzamide] | 50 to 100 | 50 to 100 | A (80–100) |
| CC(=O)Nc1c(F)ccc(NC(=O)c2cc(NC(=O)[C@H]3[C@H](c4cc(Cl)c(Cl)c(Cl)c4)C3(Cl)Cl)ccc2F)c1F [F1528, N-(3-Acetamido-2,4-difluorophenyl)-5-((1R,3R)-2,2-dichloro-3-(3,4,5-trichlorophenyl)cyclopropane-1-carboxamido)-2-fluorobenzamide] | 50 to 100 | 50 to 100 | B (More than 0 – Less than 80) |
| O=C(Nc1cc(NC(=O)C(F)(F)F)c(F)cc1F)c1cc(NC(=O)[C@H]2[C@H](c3cc(Cl)c(Cl)c(Cl)c3)C2(Cl)Cl)ccc1F [F1551, 5-((1R,3R)-2,2-Dichloro-3-(3,4,5-trichlorophenyl)cyclopropane-1-carboxamido)-N-(2,4-difluoro-5-(2,2,2-trifluoroacetamido)phenyl)-2-fluorobenzamide] | 50 to 100 | 50 to 100 | A (80–100) |
| O=C(Nc1cc(NC(=O)C(F)F)c(F)cc1F)c1cc(NC(=O)[C@H]2[C@H](c3cc(Cl)c(Cl)c(Cl)c3)C2(Cl)Cl)ccc1F [F1552, 5-((1R,3R)-2,2-Dichloro-3-(3,4,5-trichlorophenyl)cyclopropane-1-carboxamido)-N-(5-(2,2-difluoroacetamido)-2,4-difluorophenyl)-2-fluorobenzamide] | 50 to 100 | 50 to 100 | A (80–100) |
| CC(=O)Nc1cc(NC(=O)c2cc(NC(=O)[C@H]3[C@H](c4cc(Cl)c(Cl)c(Cl)c4)C3(Cl)Cl)ccc2F)c(F)cc1F [F1553, N-(5-Acetamido-2,4-difluorophenyl)-5-((1R,3R)-2,2-dichloro-3-(3,4,5-trichlorophenyl)cyclopropane-1-carboxamido)-2-fluorobenzamide] | 50 to 100 | 50 to 100 | A (80–100) |
| O=C(Nc1c(F)ccc(NC(=O)C(F)(F)F)c1F)c1cc(NC(=O)[C@H]2[C@H](c3cc(Cl)c(Cl)c(Cl)c3)C2(Cl)Cl)ccc1F [F1554, 5-((1R,3R)-2,2-Dichloro-3-(3,4,5-trichlorophenyl)cyclopropane-1-carboxamido)-N-(2,6-difluoro-3-(2,2,2-trifluoroacetamido)phenyl)-2-fluorobenzamide] | 50 to 100 | 50 to 100 | A (80–100) |

— patent US20250228239A1, “MOLECULES HAVING PESTICIDAL UTILITY, AND INTERMEDIATES, COMPOSITIONS, AND PROCESSES, RELATED THERETO” (priority 2024, published 2025)
